Source: patent US20240317760A1, “TRK KINASE INHIBITOR COMPOUND AND USE THEREOF” (HENAN MEDINNO PHARMACEUTICAL TECHNOLOGY CO., LTD., priority 2021, published 2024)

Key:
Type in all cases: biochemical
TRKA = molecular target: T1, TRKA (Homo sapiens, UniProt P04629); assay: Determination of inhibitory activity against TRKA kinase (ADP-Glo Kinase Assay); conditions: ATP 5 μM, Poly (4:1 Glu, Tyr) Peptide 0.03 mg/ml
T1 construct: purchased Carna 08-186
Experimental: (§1) Assay: Determination of Inhibitory Activity Against TRKA/B/C Kinases
(§2) 1× volume of 5× kinase reaction buffer and 4× volume of water; 5 mM MgCl2; and 1 mM DTT.
(§3) • 1). Gradiently diluting a compound 4-fold in a dilution plate with DMSO, with a starting compound concentration of 1000 nM. • 2). Diluting the compound 50-fold into 1× kinase reaction buffer and shaking it on a shaker for 20 minutes. • 3). Formulating 2× kinase with 1× of enzyme reaction buffer. • 4). Adding 2 μl kinase (formulated in step 3) to each well of the reaction plate. • 5). Adding 1 μl of the compound diluted in buffer to each well, sealing the plate with a sealing membrane and centrifuging the plate at 1000 g for 30 seconds and leaving it at room temperature for 10 minutes. • 6). Formulating 4×ATP & sub mixture with 1× enzyme reaction buffer and adding 1 μl of 4×ATP & sub mixture to the reaction plate. • 7). Sealing the plate with a sealing membrane and centrifuging the plate at 1000 g for 30 seconds and allowing it to react at room temperature for 60 minutes. • 8). Transferring 4 μl of ADP-Glo to 384 reaction plate and centrifuging the plate at 1000 rpm/min for 1 min, and then incubating it at 25° C. for 40 min. • 9). Transferring 8 μl of Detection solution to 384 reaction plate and centrifuging the plate at 1000 rpm/min for 1 min and incubating it at 25° C. for 40 min. • 10) Reading the RLU (Relative luminescence unit) signal using a Biotek multifunctional plate reader. The signal intensity was used to characterize the activity degree of kinase.
(§4) The IC50 (half inhibition concentration) of a compound was obtained using the following non-linear fitting equation, wherein data analysis was performed using Graphpad 6.0 software.
(§5) Y=Bottom+(Top−Bottom)/(1+10^((Log IC50−X)*Hill Slope)) • X: log value of compound concentration; and Y: inhibition rate (% inhibition)
(§6) Data were exported from Biotek and analyzed manually. The ratios were converted to inhibition rates and IC50 was calculated by Prism GraphPad 6.0 from the inhibition rates. IC50 was calculated again by the ratios to verify accuracy of the results.

TRKB = molecular target: T2, TRKB (Homo sapiens, UniProt Q16620); assay: Determination of inhibitory activity against TRKB kinase (ADP-Glo Kinase Assay); conditions: ATP 20 μM, Poly (4:1 Glu, Tyr) Peptide 0.03 mg/ml
T2 construct: purchased SignalChem N17-11G
T2 sequence (Q16620 32-822): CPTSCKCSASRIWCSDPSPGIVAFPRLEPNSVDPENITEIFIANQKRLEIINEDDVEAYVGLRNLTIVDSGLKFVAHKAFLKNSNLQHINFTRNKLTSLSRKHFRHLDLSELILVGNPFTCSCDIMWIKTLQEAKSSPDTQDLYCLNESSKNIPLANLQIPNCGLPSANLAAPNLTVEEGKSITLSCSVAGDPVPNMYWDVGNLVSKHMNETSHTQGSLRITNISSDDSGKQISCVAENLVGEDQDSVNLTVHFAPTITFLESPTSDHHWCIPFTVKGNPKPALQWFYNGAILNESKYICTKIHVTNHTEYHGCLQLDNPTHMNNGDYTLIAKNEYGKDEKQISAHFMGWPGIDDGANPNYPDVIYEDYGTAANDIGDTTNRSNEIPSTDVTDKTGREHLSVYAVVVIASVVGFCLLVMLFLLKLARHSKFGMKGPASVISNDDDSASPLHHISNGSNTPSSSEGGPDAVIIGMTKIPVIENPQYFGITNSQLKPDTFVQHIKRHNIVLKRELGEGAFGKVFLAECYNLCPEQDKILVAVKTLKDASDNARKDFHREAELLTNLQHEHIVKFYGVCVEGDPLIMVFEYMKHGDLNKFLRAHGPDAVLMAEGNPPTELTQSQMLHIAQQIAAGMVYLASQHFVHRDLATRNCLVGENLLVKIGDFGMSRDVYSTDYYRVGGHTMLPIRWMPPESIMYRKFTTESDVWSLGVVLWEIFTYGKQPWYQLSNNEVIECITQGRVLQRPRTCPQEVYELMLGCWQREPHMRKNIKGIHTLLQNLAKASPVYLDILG
Experimental: as §1, §2, §3, §4, §5, §6

TRKC = molecular target: T3, TRKC (Homo sapiens, UniProt Q16288); assay: Determination of inhibitory activity against TRKC kinase (ADP-Glo Kinase Assay); conditions: ATP 5 μM, Poly (4:1 Glu, Tyr) Peptide 0.03 mg/ml
T3 construct: purchased Carna 08-196
T3 sequence (Q16288 32-839): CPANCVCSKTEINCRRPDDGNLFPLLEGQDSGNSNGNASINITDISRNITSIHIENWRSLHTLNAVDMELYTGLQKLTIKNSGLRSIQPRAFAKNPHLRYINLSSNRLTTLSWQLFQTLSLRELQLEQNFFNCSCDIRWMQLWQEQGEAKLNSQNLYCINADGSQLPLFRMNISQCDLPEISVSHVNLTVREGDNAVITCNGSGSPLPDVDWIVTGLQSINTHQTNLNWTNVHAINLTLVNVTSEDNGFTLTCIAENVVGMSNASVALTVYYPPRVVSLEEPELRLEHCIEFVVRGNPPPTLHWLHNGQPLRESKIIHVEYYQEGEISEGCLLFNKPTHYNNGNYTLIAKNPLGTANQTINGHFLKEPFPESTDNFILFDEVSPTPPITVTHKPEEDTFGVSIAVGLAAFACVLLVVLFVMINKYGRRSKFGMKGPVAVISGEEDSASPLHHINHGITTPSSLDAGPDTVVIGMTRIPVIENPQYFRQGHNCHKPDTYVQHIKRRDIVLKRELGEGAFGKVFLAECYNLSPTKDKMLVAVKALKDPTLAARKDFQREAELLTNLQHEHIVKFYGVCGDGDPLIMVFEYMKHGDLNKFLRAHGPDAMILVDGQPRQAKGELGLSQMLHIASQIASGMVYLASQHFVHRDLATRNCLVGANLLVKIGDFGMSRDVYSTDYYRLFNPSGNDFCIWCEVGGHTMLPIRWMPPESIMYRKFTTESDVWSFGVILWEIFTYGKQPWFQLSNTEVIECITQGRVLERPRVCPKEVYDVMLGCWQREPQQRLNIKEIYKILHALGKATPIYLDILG
Experimental: as §1, §2, §3, §4, §5, §6

T1 sequence (P04629 33-796): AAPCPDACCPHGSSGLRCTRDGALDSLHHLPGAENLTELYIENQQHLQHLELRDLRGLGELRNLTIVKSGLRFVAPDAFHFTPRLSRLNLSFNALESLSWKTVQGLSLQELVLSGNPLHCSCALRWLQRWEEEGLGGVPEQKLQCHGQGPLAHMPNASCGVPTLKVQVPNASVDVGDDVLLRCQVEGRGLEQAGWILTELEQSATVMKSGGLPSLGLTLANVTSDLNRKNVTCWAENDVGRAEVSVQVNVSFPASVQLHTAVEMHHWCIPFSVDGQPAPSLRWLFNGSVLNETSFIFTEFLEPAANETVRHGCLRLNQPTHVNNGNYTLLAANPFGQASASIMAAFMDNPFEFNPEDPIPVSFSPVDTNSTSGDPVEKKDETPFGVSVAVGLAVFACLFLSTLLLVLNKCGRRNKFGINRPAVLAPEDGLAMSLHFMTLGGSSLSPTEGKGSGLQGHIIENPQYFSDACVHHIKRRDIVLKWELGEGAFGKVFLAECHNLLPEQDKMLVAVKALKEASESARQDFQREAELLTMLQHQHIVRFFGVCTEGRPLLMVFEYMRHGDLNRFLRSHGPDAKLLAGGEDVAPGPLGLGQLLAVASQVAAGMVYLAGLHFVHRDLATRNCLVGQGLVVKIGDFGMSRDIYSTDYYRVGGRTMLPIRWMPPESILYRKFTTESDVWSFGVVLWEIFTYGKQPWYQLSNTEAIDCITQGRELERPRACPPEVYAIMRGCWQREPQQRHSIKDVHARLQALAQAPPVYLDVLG

Row | Structure (SMILES) | IC50 (TRKA) | IC50 (TRKB) | IC50 (TRKC)
1 | CC(Nc1ccc2[nH]nc(-c3nc4c([nH]3)CNC4)c2c1)c1cc(F)cc(F)c1 (stereo not drawn) [Example 1] | 1.8 nM | 2.8 nM | 5.5 nM
2 | Fc1cc(F)cc(CNc2ccc3[nH]nc(-c4nc5c([nH]4)CN(CC4CCNCC4)C5)c3c2)c1 [Example 2, N-(3,5-difluorobenzyl)-3-(5-(piperidin-4-ylmethyl)-1,4,5,6-tetrahydropyrrolo[3,4-d]imidazol-2-yl)-1H-indazol-5-amine] | 3.5 nM | 3.4 nM | 3.3 nM
3 | CS(=O)(=O)N1Cc2nc(-c3n[nH]c4ccc(Cc5cc(F)cc(F)c5)cc34)[nH]c2C1 [Example 3, 5-(3,5-difluorobenzyl)-3-(5-(methylsulfonyl)-1,4,5,6-tetrahydropyrrolo[3,4-d]imidazol-2-yl)-1H-indazole] | 6.4 nM | 5.5 nM | 11 nM
4 | CC(Oc1ccc2[nH]nc(-c3nc4c([nH]3)CN(C3CCN(C)CC3)C4)c2c1)c1cc(F)cc(F)c1 (stereo not drawn) [Example 4, 5-(1-(3,5-difluorophenyl)ethoxy)-3-(5-(1-methylpiperidin-4-yl)-1,4,5,6-tetrahydropyrrolo[3,4-d]imidazol-2-yl)-1H-indazole] | 2 nM | 2.4 nM | 3.1 nM
5 | CC(Oc1ccc2[nH]nc(-c3nc4c([nH]3)CN(C(=O)N(C)C)C4)c2c1)c1cc(F)cc(F)c1 (stereo not drawn) [Example 5, 2-(5-(1-(3,5-difluorophenyl)ethoxy)-1H-indazol-3-yl)-N,N-dimethyl-4,6-dihydropyrrolo[3,4-d]imidazole-5(1H) formamide] | 2.3 nM | 2.1 nM | 3.1 nM
6 | CC(Oc1ccc2[nH]nc(-c3nc4c([nH]3)CN(C(=O)OCCN(C)C)C4)c2c1)c1cc(F)cc(F)c1 (stereo not drawn) [Example 6, 2-(Dimethylamino)ethyl 2-(5-(1-(3,5-difluorophenyl)ethoxy)-1H-indazol-3-yl)-4,6-dihydropyrrolo[3,4-d]imidazole-5(1H)-carboxylate] | 0.97 nM | 3.2 nM | 1.4 nM
7 | CC(Oc1ccc2[nH]nc(-c3nc4c([nH]3)CN(C(=O)C3CCN(C)CC3)C4)c2c1)c1cc(F)cc(F)c1 (stereo not drawn) [Example 7, (2-(5-(1-(3,5-difluorophenyl)ethoxy)-1H-indazol-3-yl)-4,6-dihydropyrrolo[3,4-d]imidazol-5(1H)-yl)(1-methylpiperidin-4-yl)ketone] | 1.4 nM | 3.4 nM | 1.3 nM
8 | CC(Oc1ccc2[nH]nc(-c3nc4c([nH]3)CN(C3CCN(C)CC3)CC4)c2c1)c1cc(F)cc(F)c1 (stereo not drawn) [Example 8, 2-(5-(1-(3,5-difluorophenyl)ethoxy)-1H-indazol-3-yl)-5-(1-methylpiperidin-4-yl)-4,5,6,7-tetrahydro-3H-imidazo[4,5-c]pyridine] | 0.7 nM | 2.8 nM | 1.6 nM
9 | C[C@H](Oc1ccc2[nH]nc(-c3nc4c([nH]3)CN(CC3CCN(C)CC3)C4)c2c1)c1cc(F)cc(F)c1 [Example 9] | 1.7 nM | 28 nM | 4.6 nM
10 | CC(Oc1ccc2[nH]nc(-c3nc4c([nH]3)CN(C(=O)OC3CCN(C)CC3)C4)c2c1)c1cc(F)cc(F)c1 (stereo not drawn) [Example 10, 1-Methylpiperidin-4-yl-2-(5-(1-(3,5-difluorophenyl)ethoxy)-1H-indazol-3-yl)-4,6-dihydropyrrolo[3,4-d]imidazole-5(1H)-carboxylate] | 0.77 nM | 2.5 nM | 1.3 nM
11 | CC(Nc1ccc2[nH]nc(-c3nc4c([nH]3)CN(CC3CCNCC3)C4)c2c1)c1cc(F)cc(F)c1 (stereo not drawn) [Example 11, N-(1-(3,5-difluorophenyl)ethyl)-3-(5-(piperidin-4-ylmethyl)-1,4,5,6-tetrahydropyrrolo[3,4-d]imidazol-2-yl)-1H-indazol-5-amine] | 1.4 nM | 2.2 nM | 2.4 nM
12 | O=C(C1CC1)N1Cc2nc(-c3n[nH]c4ccc(Cc5cc(F)cc(F)c5)cc34)[nH]c2C1 [Example 13, Cyclopropyl(2-(5-(3,5-difluorobenzyl)-1H-indazol-3-yl)-4,6-dihydropyrrolo [3,4-d]imidazol-5(1H)-yl)ketone] | 6.9 nM | 4.4 nM | 9.2 nM
13 | CN1CCC(N2Cc3nc(-c4n[nH]c5ccc(Cc6cc(F)cc(F)c6)cc45)[nH]c3C2)CC1 [Example 14, 5-(3,5-Difluorobenzyl)-3-(5-(1-methylpiperidin-4-yl)-1,4,5,6-tetrahydropyrrolo[3,4-d]imidazol-2-yl)-1H-indazole] | 3.5 nM | 9.5 nM | 11.5 nM
14 | CC(Oc1ccc2[nH]nc(-c3nc4c([nH]3)CN(CC3CCN(C)CC3)C4)c2c1)c1cc(F)cc(F)c1 (stereo not drawn) [Example 15] | 0.75 nM | 0.65 nM | 0.86 nM
15 | CC(Oc1ccc2[nH]nc(-c3nc4c([nH]3)CN(CC3CCNCC3)C4)c2c1)c1cc(F)cc(F)c1 (stereo not drawn) [Example 16, 5-(1-(3,5-Difluorophenyl)ethoxy)-3-(5-(piperidin-4-ylmethyl)-1,4,5,6-tetrahydropyrrolo[3,4-d]imidazol-2-yl)-1H-indazole] | 1.3 nM | 1.9 nM | 1.8 nM
16 | CCN1CCC(CN2Cc3nc(-c4n[nH]c5ccc(OC(C)c6cc(F)cc(F)c6)cc45)[nH]c3C2)CC1 (stereo not drawn) [Example 17] | 0.66 nM | 4.2 nM | 1.5 nM
17 | CC(Oc1ccc2[nH]nc(-c3nc4c([nH]3)CN(CCN(C)C)C4)c2c1)c1cc(F)cc(F)c1 (stereo not drawn) [Example 18, 2-(2-(5-(1-(3,5-Difluorophenyl)ethoxy)-1H-indazol-3-yl)-4,6-dihydropyrrolo[3,4-d]imidazol-5(1H)-yl)-N,N-dimethyl ethan-1-amine] | 0.8 nM | 1.1 nM | 1.5 nM
18 | CC(=O)N1CCC(CN2Cc3nc(-c4n[nH]c5ccc(OC(C)c6cc(F)cc(F)c6)cc45)[nH]c3C2)CC1 (stereo not drawn) [Example 19, 1-(4-((2-(5-(1-(3,5-Difluorophenyl)ethoxy)-1H-indazol-3-yl)-4,6-dihydropyrrolo[3,4-d]imidazol-5(1H)-yl)methyl)piperidin-1-yl)ethan-1-one] | 1.2 nM | 4.8 nM | 4.1 nM
19 | CC(Oc1ccc2[nH]nc(-c3nc4c([nH]3)CN(CC3CCN(C)C3)C4)c2c1)c1cc(F)cc(F)c1 (stereo not drawn) [Example 20] | 1.5 nM | 4 nM | 2.9 nM
20 | CC(Oc1ccc2[nH]nc(-c3nc4c([nH]3)CN(CCC3CCN(C)CC3)C4)c2c1)c1cc(F)cc(F)c1 (stereo not drawn) [Example 21, 5-(1-(3,5-Difluorophenyl)ethoxy)-3-(5-(2-(1-methylpiperidin-4-yl)ethyl)-1,4,5,6-tetrahydropyrrolo[3,4-d]imidazol-2-yl)-1H-indazole] | 1.8 nM | 6.8 nM | 2.5 nM
21 | CC(Oc1ccc2[nH]nc(-c3nc4c([nH]3)CN(CC3CCN(C(C)C)CC3)C4)c2c1)c1cc(F)cc(F)c1 (stereo not drawn) [Example 22] | 0.47 nM | 0.82 nM | 0.51 nM
22 | CC(Oc1ccc2[nH]nc(-c3nc4c([nH]3)CN(C(C)C3CCN(C)CC3)C4)c2c1)c1cc(F)cc(F)c1 (stereo not drawn) [Example 23, 5-(1-(3,5-Difluorophenyl)ethoxy)-3-(5-(1-(1-methylpiperidin-4-yl)ethyl)-1,4,5,6-tetrahydropyrrolo[3,4-d]imidazol-2-yl)-1H-indazole] | 0.59 nM | 1.5 nM | 1.1 nM
23 | CC(Oc1ccc2[nH]nc(-c3nc4c([nH]3)CN(CC3CCCNC3)C4)c2c1)c1cc(F)cc(F)c1 (stereo not drawn) [Example 24, 5-(1-(3,5-Difluorophenyl)ethoxy)-3-(5-(piperidin-3-ylmethyl)-1,4,5,6-tetrahydropyrrolo[3,4-d]imidazol-2-yl)-1H-indazole] | 1.5 nM | 5.3 nM | 2.2 nM
24 | CC(Oc1ccc2[nH]nc(-c3nc4c([nH]3)CN(CC3CCCCN3)C4)c2c1)c1cc(F)cc(F)c1 (stereo not drawn) [Example 25, 5-(1-(3,5-Difluorophenyl)ethoxy)-3-(5-(piperidin-2-ylmethyl)-1,4,5,6-tetrahydropyrrolo[3,4-d]imidazol-2-yl)-1H-indazole] | 1.8 nM | 6.8 nM | 1.6 nM
25 | CC(Oc1ccc2[nH]nc(-c3nc4c([nH]3)CN(CC3CN(C)C3)C4)c2c1)c1cc(F)cc(F)c1 (stereo not drawn) [Example 26, 5-(1-(3,5-Difluorophenyl)ethoxy)-3-(5-((1-methylazetidin-3-yl)methyl)-1,4,5,6-tetrahydropyrrolo[3,4-d]imidazol-2-yl)-1H-indazole] | 2.8 nM | 5.5 nM | 2 nM
